{"source": "patent US12290521B2", "about": "“Methods and materials for identifying and treating BET inhibitor-resistant cancers” (Mayo Foundation for Medical Education and Research, priority 2018, dated 2025)", "key": {"DU145 cells": {"test_system": "DU145 cells", "assay": "Cell proliferation (MTS assay)", "assay_type": "cell-based, human", "conditions": "JQ1 2 μM", "protocol": "Cell proliferation was measured by using the MTS assay (Promega). Prostate cancer cells (2,000 per well) were seeded in 96-well plates with 100 μL of culture medium. Each well was added with 20 μL of CellTiter 96R AQueous One Solution Reagent (Promega) and absorbance was measured in a microplate reader at 490 nm.\nThe cells then were treated with vehicle (DMSO), a CBP/p300 inhibitor (CPI-637; iCBP; 20 μM), or a BET inhibitor (JQ1; 2 μM) alone or a combination of CPI-637 and JQ1. After 72 hours, cells were subjected to measurement of cell growth by an MTS assay. In each cell type (EV and F133V), the OD value in each group was normalized by the value in the control (vehicle) group."}, "BRD4": {"test_system": "BRD4", "assay": "ChIP-seq and ChIP-qPCR of BRD4 binding in C4-2 cells", "assay_type": "cell-based, human", "conditions": "control and SPOP-F133V C4-2 cells; JQ1 1 μM, 24 hours", "protocol": "ChIP was performed as described elsewhere (Boyer et al., Cell, 122:947-956 (2005)). ChIP-seq libraries were prepared using the methods as described elsewhere (Boyer et al., Cell, 122:947-956 (2005)), and high throughput sequencing was performed using the Illumina HiSeq2000 platforms. The data were analyzed using the following pipeline: ChIP-seq raw reads were aligned to the human reference genome (GRCh37/hg19) using Bowtie2 (2.2.9), and reads mapped to one or two locations were kept for further analysis. Peak calling was performed by MACS2 (2.1.1) with p-value threshold of 1e-5. BigWig files were generated for visualization with the UCSC genome browser or IGV. GREAT (bejerano.stanford.edu/great/public/html/) was used to assign peaks to their potential target genes (a peak-gene association was determined if the peak fell into 2 kb region centering on the transcription start site of the gene). The common BRD4 target genes induced by SPOP F133V and HA-BRD4 expression were determined independently in each of two biological repeat experiments. Raw and processed data were deposited into NCBI Gene Expression Omnibus with accession number GSE88872.\nFor ChIP-qPCR experiments, DNAs pulled down by antibodies or non-specific IgG were amplified by real-time PCR. […]"}}}
{"smiles": "Cc1sc2c(c1C)C(c1ccc(Cl)cc1)=N[C@@H](CC(=O)OC(C)(C)C)c1nnc(C)n1-2", "note": "[JQ1]", "values": [{"measurement": "sensitivity of cell growth to JQ1", "setting": "DU145 cells; DUB3-knockdown DU145 cells versus control knockdown cells", "value": "much more sensitive"}, {"measurement": "resistance of cell growth by DUB3 overexpression", "setting": "DU145 cells; DUB3-overexpressing DU145 cells", "value": "conferred resistance"}, {"measurement": "sensitivity of cell growth to JQ1", "setting": "DU145 cells; SPOP F133V-expressing DU145 cells", "value": "JQ1 resistance"}, {"measurement": "sensitivity of cell growth to JQ1 after DUB3 knockdown", "setting": "DU145 cells; SPOP-F133V cells with DUB3 shRNA", "value": "sensitized"}, {"measurement": "BRD4 binding in the AR gene promoter", "setting": "BRD4", "value": "largely decreased"}, {"measurement": "BRD4 binding in the MYC gene enhancer", "setting": "BRD4", "value": "substantial reduction"}]}
